Common to all, as to assay type: biochemical
One assay deals with T1, JAK3 enzyme (Homo sapiens, UniProt P52333).
T1 sequence (P52333 1-1124): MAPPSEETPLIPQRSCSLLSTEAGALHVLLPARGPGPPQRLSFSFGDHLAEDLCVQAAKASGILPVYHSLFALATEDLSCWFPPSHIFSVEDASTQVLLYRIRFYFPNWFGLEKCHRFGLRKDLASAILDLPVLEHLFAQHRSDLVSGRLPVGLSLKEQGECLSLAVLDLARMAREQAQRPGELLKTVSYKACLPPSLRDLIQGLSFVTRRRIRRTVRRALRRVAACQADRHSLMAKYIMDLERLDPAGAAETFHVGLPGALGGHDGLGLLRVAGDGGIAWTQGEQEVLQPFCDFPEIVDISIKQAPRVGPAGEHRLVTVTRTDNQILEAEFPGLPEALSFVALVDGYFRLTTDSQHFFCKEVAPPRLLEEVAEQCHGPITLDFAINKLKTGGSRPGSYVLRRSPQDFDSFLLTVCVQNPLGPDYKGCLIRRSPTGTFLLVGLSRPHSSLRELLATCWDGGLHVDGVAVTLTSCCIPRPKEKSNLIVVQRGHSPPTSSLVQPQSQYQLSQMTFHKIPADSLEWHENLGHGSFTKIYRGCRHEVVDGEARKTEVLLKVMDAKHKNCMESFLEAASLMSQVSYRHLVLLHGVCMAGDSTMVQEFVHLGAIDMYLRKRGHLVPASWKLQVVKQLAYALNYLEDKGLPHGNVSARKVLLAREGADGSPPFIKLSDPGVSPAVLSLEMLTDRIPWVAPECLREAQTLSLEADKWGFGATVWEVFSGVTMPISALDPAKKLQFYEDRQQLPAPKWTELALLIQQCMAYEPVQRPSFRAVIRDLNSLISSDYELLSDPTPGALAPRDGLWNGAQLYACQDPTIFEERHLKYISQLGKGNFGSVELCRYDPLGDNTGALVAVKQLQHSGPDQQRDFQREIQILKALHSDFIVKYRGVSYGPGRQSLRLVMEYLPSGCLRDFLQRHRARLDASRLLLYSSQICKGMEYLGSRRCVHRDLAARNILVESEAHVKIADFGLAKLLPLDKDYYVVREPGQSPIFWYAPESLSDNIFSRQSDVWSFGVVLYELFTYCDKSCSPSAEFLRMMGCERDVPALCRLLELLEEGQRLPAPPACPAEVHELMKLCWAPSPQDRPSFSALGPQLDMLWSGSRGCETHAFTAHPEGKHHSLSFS
The assay is described as follows: JAK3 Kinase Assay Protocol (Filter). The conditions noted are these: 33P γ-ATP, 8 μM ATP, CSKtide substrate, read-out: LLE_JAK3_FB (IC50). How it is done: Kinase reactions consisted of 5 ng of JAK3 enzyme, 30 uM CSKtide substrate, 0.2 μCi ^33P γ-ATP, 8 μM ATP in 30 μl kinase buffer (50 mM Hepes, pH 8.0, 10 mM MgCl2, 1 mM EGTA, 2 mM DTT). Reactions were incubated for 30 minutes at room temperature and stopped by the addition of cold trichloroacetic acid (TCA) to a final concentration of 15%. TCA precipitates were collected onto 384 well phosphocellulose filters (Millipore) using a Platemate to transfer the reaction mixture, washed on an EMBLA plate washer and the filters were quantitated using a TopCount 384-well liquid scintillation counter. […] Compounds were dissolved at 10 mM in dimethylsulfoxide (DMSO) and evaluated at six concentrations, each in triplicate. The final concentration of DMSO in the assay equaled 2%. IC50 values were derived by non-linear regression analysis.

Another assay concerns the target T2, GST-JAK3 enzyme (Homo sapiens, UniProt P52333).
T2 sequence (P52333 1-1124): T1 sequence (P52333 1-1124)
The assay is described as follows: JAK3 Kinase Assay Protocol (Caliper). The conditions noted are these: Caliper LabChip assay, ATP 8 μM, fluoresceinated peptide; read-out: LLE_JAK3_CAL (IC50). Here is the method: The assay reactions were performed in U-bottom 384-well plates. […] The reaction was initiated by the combination of GST-JAK3 enzyme with substrates and test compounds. The reactions were incubated at room temperature for 3 hours and terminated by adding 60 μl of 35 mM EDTA to each sample. Each reaction mixture was analyzed on the Caliper LabChip 3000 (Caliper, Hopkinton, Mass.) by electrophoretic separation of the fluorescent substrate and phosphorylated product. […] Compounds were dissolved at 10 mM in dimethylsulfoxide (DMSO) and evaluated at eleven concentrations. IC50 values were derived by non-linear regression analysis.

The next assay has as its target GST-JAK1 enzyme (Homo sapiens, UniProt P23458). Kind of assay: JAK1 Kinase Assay Protocol. The settings on record: Caliper LabChip assay, ATP 100 μM, fluoresceinated peptide; read-out: LLE_JAK1 (IC50). How it is done: The assay reactions were performed in U-bottom 384-well plates. The final assay volume was 30 μl prepared from 15 μl additions of enzyme and substrates (fluoresceinated peptide and ATP) and test compounds in assay buffer (20 mM HEPES pH 7.4, 10 mM MgCl2, 25 mM beta-glycerol phosphate, 0.015% Brij35 and 4 mM DTT). The reaction was initiated by the combination of GST-JAK1 enzyme with substrates and test compounds. The reactions were incubated at room temperature for 3 hours and terminated by adding 60 μl of 35 mM EDTA to each sample. Each reaction mixture was analyzed on the Caliper LabChip 3000 (Caliper, Hopkinton, Mass.) by electrophoretic separation of the fluorescent substrate and phosphorylated product. […] The final concentration of reagents in the assays was: ATP, 100 μM; fluoresceinated peptide, 1.5 μM; GST-JAK1, 12.5 nM; and DMSO, 1.6%. […] Compounds were dissolved at 10 mM in dimethylsulfoxide (DMSO) and evaluated at eleven concentrations. IC50 values were derived by non-linear regression analysis.

Chain of GST-JAK1 enzyme (P23458 whole entry): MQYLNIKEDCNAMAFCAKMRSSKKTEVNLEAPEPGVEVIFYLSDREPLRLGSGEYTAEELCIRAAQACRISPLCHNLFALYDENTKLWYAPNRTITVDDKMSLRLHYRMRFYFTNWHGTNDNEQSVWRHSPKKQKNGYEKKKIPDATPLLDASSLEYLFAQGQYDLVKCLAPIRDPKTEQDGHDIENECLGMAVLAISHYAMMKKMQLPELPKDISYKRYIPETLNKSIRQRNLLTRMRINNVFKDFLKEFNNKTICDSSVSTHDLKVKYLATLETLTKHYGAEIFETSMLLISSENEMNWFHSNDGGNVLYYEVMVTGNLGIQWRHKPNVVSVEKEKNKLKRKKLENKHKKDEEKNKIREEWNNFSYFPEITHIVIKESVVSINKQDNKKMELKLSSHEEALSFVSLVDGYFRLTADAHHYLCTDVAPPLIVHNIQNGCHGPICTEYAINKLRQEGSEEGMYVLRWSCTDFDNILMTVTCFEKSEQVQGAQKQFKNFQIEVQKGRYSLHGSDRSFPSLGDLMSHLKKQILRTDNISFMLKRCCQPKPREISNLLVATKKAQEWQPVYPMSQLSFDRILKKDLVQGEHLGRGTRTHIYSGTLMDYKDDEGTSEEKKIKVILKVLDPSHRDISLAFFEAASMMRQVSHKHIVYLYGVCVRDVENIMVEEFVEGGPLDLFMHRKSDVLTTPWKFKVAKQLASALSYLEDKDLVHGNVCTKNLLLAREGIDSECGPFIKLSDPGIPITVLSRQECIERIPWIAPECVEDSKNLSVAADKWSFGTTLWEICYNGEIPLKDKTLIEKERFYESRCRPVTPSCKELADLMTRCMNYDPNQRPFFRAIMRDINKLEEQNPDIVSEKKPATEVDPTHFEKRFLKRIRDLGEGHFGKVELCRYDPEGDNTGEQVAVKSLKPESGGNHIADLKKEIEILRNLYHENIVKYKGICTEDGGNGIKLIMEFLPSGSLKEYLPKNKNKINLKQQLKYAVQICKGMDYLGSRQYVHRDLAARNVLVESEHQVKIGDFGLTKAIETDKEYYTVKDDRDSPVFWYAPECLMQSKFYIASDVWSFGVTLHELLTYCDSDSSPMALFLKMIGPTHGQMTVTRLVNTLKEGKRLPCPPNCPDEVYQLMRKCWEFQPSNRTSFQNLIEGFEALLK

Take `CSc1nnc(-c2cc3c(N[C@H](C)C4CC4)c(C(N)=O)cnn3c2)o1` [Example 127, (R)-4-(1-cyclopropylethylamino)-6-(5-(methylthio)-1,3,4-oxadiazol-2-yl)pyrrolo[1,2-b]pyridazine-3-carboxamide]: the IC50 (as a rule, the midpoint of a concentration-inhibition curve) is 26 nM at JAK3 enzyme, 23.4 nM on GST-JAK3 enzyme and 160 nM at GST-JAK1 enzyme.

For `C[C@@H](Nc1c(C(N)=O)cnn2cc(N3CCOCC3=O)cc12)C(C)(C)F` [Example 129], the IC50 is 11 nM on JAK3 enzyme, 8.4 nM on GST-JAK3 enzyme and 61.1 nM on GST-JAK1 enzyme.

`C[C@@H](Nc1c(C(N)=O)cnn2cc(N3CCCS3(=O)=O)cc12)C(C)(C)F` [Example 131]: the IC50 on JAK3 enzyme was found to be 11.3 nM; at GST-JAK3 enzyme, 4.8 nM; at GST-JAK1 enzyme it was 83.1 nM.

For `CC(C)Nc1c(C(N)=O)cnn2cc(-c3ccc(C#N)cc3)cc12` [Example 146], the IC50 at JAK3 enzyme was 15.1 nM; on GST-JAK3 enzyme, 11.1 nM; at GST-JAK1 enzyme it was 26.5 nM.

For the compound `CC(C)Nc1c(C(N)=O)cnn2cc(-c3ccnc4ccccc34)cc12` [Example 153], the IC50 on JAK3 enzyme stood at 178 nM; at GST-JAK3 enzyme, 223 nM; at GST-JAK1 enzyme, 402 nM.

Turning to `COc1cc(-c2cc3c(NC(C)C)c(C(N)=O)cnn3c2)c(F)cn1` [Example 154], the results for the IC50 on JAK3 enzyme, on GST-JAK3 enzyme and on GST-JAK1 enzyme were 35.1 nM, 56.3 nM and 149 nM, respectively.

For the compound `COc1ccc(-c2cc3c(N[C@H](C)c4ccccc4F)c(C(N)=O)cnn3c2)cn1` [Example 180, 4-(((1R)-1-(2-fluorophenyl)ethyl)amino)-6-(6-methoxy-3-pyridinyl)pyrrolo[1,2-b]pyridazine-3-carboxamide], the IC50 came to 13.5 nM at JAK3 enzyme, 60.9 nM on GST-JAK3 enzyme and 1200 nM at GST-JAK1 enzyme.

Turning to `CCCNc1c(C(N)=O)cnn2cc(-c3ccccc3)cc12` [Example 183, 6-phenyl-4-(propylamino)pyrrolo[1,2-b]pyridazine-3-carboxamide], the values for the IC50 on JAK3 enzyme, on GST-JAK3 enzyme and at GST-JAK1 enzyme were 11 nM, 27.3 nM and 37.3 nM, respectively.

In the case of `NC(=O)c1cnn2cc(-c3ccccc3)cc2c1NCC1(CO)CC1` [Example 189, 4-((1-(hydroxymethyl)cyclopropyl)methylamino)-6-phenylpyrrolo[1,2-b]pyridazine-3-carboxamide], the values for the IC50 on JAK3 enzyme, on GST-JAK3 enzyme and at GST-JAK1 enzyme were 19.1 nM, 8.5 nM and 21.5 nM, respectively.

With `CNc1c(C(N)=O)cnn2cc(-c3cccc(CC#N)c3)cc12` [Example 191, 6-(3-(cyanomethyl)phenyl)-4-(methylamino)pyrrolo[1,2-b]pyridazine-3-carboxamide], the IC50 at JAK3 enzyme was 88 nM; at GST-JAK3 enzyme, 40.6 nM; on GST-JAK1 enzyme, 72.3 nM.

With `C[C@@H](Nc1c(C(N)=O)cnn2cc(-c3cnc(N)nc3)cc12)C1CC1` [Example 192, (R)-6-(2-aminopyrimidin-5-yl)-4-(1-cyclopropylethylamino)pyrrolo[1,2-b]pyridazine-3-carboxamide], the IC50 was 1.7 nM at JAK3 enzyme, 2.1 nM at GST-JAK3 enzyme and 13 nM at GST-JAK1 enzyme.

`C[C@@H](Nc1c(C(N)=O)cnn2cc(-c3ccccc3)cc12)C(C)(C)C(N)=O` [Example 194, (R)-4-(4-amino-3,3-dimethyl-4-oxobutan-2-ylamino)-6-phenylpyrrolo[1,2-b]-pyridazine-3-carboxamide]: the IC50 on JAK3 enzyme is 1.3 nM; at GST-JAK3 enzyme, 1 nM; on GST-JAK1 enzyme it was 2.8 nM.

Turning to `CNc1nnc(-c2cc3c(N[C@H](C)C4CC4)c(C(N)=O)cnn3c2)o1` [Example 195, (R)-4-(1-cyclopropylethylamino)-6-(5-(methylamino)-1,3,4-oxadiazol-2-yl)pyrrolo[1,2-b]pyridazine-3-carboxamide], the IC50 was 5.3 nM at JAK3 enzyme, 8.4 nM on GST-JAK3 enzyme and 73.7 nM at GST-JAK1 enzyme.

Take `C[C@@H](O)[C@@H](CO)Nc1c(C(N)=O)cnn2cc(-c3ccccc3)cc12` [Example 196, 4-((2R,3R)-1,3-dihydroxybutan-2-ylamino)-6-phenylpyrrolo[1,2-b]pyridazine-3-carboxamide]: the IC50 came to 1.3 nM on JAK3 enzyme, 3 nM at GST-JAK3 enzyme and 5.8 nM on GST-JAK1 enzyme.

Consider `C[C@@H](Nc1c(C(N)=O)cnn2cc(-c3ccc(N)nc3)cc12)C1CC1` [Example 200], for which the IC50 on JAK3 enzyme amounted to 1.1 nM; on GST-JAK3 enzyme, 2.2 nM; on GST-JAK1 enzyme it was 4.8 nM.

Regarding `CNC(=O)c1ccc(-c2cc3c(N[C@H](C)C4CC4)c(C(N)=O)cnn3c2)cn1` [Example 202], the IC50 on JAK3 enzyme was determined as 1.8 nM; on GST-JAK3 enzyme it was 1.2 nM; at GST-JAK1 enzyme, 3.8 nM.

For the compound `C[C@@H](Nc1c(C(N)=O)cnn2cc(-c3cnc(NCCN(C)C)nc3)cc12)C1CC1` [Example 205], the IC50 on JAK3 enzyme stood at 7.9 nM; at GST-JAK3 enzyme it was 5.4 nM; on GST-JAK1 enzyme, 110 nM.

As to `C[C@@H](Nc1c(C(N)=O)cnn2cc(-c3nnc(N4CCN(C)CC4)o3)cc12)C1(C)CC1` [Example 241, (R)-4-((1-(1-methylcyclopropyl)ethyl)amino)-6-(5-(4-methylpiperazin-1-yl)-1,3,4-oxadiazol-2-yl)pyrrolo[1,2-b]pyridazine-3-carboxamide], the half-maximal inhibitory concentration (IC50) was determined as 2.3 nM on JAK3 enzyme, 1.8 nM on GST-JAK3 enzyme and 100 nM on GST-JAK1 enzyme.

The values above are taken from patent publication US9221826B2, “Pyrrolopyridazine JAK3 inhibitors and their use for the treatment of inflammatory and autoimmune diseases” (Bristol-Myers Squibb Company, priority 2011, dated 2015).
